These results are taken from article PMC7316778 (Nature Communications, 2020).

Some targets named below: MAP4K1 (HPK1) (Homo sapiens, UniProt Q92918); MARK3 (Homo sapiens, UniProt P27448); PAK4 (Homo sapiens, UniProt O96013); RPS6KA1 (RSK1) (Homo sapiens, UniProt Q15418).
Test in all cases: SelectScreen kinase assay
In a further assay the target is T1, EPHB3 (Homo sapiens, UniProt P54753).
T1 sequence (P54753 34-998): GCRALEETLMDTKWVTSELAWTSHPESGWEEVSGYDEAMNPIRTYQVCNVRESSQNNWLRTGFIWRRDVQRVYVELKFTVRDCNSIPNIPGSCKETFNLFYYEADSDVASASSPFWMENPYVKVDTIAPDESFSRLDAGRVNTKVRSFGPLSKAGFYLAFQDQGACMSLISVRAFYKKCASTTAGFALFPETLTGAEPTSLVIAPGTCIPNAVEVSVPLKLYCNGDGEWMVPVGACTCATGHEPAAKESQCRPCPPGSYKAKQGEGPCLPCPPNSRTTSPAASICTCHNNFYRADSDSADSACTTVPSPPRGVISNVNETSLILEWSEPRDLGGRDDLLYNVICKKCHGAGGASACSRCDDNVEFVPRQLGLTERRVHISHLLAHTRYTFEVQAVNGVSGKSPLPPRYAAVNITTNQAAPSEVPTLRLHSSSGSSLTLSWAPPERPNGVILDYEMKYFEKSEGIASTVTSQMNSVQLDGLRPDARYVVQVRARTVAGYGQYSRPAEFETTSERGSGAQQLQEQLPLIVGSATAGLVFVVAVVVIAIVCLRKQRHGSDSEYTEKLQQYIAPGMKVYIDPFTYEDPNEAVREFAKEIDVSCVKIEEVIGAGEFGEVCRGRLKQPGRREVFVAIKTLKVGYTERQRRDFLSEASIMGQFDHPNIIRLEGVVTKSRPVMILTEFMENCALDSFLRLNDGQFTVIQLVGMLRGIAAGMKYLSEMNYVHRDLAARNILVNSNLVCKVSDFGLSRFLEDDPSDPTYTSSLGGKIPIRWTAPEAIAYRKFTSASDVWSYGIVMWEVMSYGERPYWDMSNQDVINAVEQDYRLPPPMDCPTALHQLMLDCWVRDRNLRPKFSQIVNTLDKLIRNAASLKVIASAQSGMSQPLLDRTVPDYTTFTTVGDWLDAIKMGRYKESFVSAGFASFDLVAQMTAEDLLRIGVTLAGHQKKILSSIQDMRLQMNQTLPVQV
The conditions noted are these: for Inhibition at 1 µM (%): EPHB3, ZLYTE, ATP Km app.

The next assay deals with T2, CASK (Homo sapiens, UniProt O14936).
T2 sequence (O14936 1-926): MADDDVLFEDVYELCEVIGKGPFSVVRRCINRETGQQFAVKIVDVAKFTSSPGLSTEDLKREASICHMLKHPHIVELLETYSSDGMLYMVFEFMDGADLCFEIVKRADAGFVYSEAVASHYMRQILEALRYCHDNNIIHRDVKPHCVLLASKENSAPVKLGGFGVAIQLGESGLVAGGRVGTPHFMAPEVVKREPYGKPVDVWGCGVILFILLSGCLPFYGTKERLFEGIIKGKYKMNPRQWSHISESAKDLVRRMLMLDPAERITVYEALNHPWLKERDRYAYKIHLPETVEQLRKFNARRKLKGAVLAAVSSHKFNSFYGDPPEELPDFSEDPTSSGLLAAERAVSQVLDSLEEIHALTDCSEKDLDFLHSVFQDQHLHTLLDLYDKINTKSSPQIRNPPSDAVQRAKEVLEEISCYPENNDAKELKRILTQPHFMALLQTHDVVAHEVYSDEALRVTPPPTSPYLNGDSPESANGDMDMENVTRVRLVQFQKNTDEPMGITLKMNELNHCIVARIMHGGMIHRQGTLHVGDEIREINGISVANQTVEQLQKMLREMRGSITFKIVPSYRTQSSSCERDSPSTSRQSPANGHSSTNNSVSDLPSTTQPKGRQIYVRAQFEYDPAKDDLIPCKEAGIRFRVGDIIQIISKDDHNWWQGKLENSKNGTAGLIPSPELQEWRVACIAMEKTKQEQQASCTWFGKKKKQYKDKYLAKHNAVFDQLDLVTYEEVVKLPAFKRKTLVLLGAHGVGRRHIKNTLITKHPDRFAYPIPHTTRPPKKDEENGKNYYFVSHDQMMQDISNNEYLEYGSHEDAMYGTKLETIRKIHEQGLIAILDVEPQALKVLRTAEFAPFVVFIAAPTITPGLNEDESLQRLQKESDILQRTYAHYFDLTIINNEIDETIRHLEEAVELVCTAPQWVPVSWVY
To be noted: for Inhibition at 1 µM (%): CASK, LanthaScreen Binding. In general terms: In TR-FRET formats the signal depends on donor and acceptor labels being close together.

Setting [1] is: 1 h, 1 μM WEL028, 1 h preincubation.

A word on the inhibition: it is the relative decrease from the control value, in per cent. For orientation: Inhibition means the drop in the measured response relative to a control, in per cent.

“And” between values parts separate entries of the source, which are not always exact repeats. Equal values may be shown once. Read-outs that look alike come from different tables or passages of the source.

Sequence of RPS6KA1 (RSK1) (Q15418 whole entry): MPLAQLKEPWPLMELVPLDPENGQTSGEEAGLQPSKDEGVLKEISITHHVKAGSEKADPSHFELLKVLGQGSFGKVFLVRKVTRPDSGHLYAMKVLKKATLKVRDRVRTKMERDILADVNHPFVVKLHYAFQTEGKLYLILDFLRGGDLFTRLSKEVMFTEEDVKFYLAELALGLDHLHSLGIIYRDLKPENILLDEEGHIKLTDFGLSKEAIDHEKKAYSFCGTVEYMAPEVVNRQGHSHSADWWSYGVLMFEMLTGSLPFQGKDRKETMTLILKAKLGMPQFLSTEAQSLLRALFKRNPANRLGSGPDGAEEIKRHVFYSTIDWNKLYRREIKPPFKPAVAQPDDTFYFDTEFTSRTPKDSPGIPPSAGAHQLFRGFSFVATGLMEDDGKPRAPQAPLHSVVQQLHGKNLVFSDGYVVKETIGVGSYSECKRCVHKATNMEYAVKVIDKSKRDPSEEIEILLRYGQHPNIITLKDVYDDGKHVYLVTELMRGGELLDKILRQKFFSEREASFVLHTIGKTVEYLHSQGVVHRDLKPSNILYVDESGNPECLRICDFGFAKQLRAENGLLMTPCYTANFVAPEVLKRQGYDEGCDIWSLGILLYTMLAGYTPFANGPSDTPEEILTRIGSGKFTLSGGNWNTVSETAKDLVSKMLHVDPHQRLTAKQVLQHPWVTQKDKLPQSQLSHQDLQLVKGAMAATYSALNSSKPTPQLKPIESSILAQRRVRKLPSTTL
Sequence of MARK3 (P27448 whole entry): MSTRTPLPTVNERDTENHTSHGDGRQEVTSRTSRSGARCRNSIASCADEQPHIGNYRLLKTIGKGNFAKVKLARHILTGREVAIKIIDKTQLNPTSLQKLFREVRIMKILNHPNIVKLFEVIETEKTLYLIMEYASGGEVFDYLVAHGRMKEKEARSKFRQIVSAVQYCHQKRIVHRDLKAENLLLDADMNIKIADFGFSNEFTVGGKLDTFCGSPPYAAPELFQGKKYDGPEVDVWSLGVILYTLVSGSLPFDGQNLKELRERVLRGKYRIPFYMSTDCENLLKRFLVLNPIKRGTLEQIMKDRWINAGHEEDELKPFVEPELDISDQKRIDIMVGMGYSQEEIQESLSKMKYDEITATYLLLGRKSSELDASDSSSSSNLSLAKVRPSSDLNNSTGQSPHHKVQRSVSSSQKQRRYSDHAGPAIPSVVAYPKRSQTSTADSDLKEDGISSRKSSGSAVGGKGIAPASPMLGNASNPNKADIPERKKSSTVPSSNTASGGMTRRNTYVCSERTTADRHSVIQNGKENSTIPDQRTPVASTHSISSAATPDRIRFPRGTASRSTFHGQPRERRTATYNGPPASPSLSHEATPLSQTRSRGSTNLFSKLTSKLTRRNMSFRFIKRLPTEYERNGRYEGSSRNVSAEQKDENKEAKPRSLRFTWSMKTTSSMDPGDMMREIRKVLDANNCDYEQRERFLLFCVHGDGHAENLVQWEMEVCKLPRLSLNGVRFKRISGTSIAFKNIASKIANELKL
Sequence of PAK4 (O96013 whole entry): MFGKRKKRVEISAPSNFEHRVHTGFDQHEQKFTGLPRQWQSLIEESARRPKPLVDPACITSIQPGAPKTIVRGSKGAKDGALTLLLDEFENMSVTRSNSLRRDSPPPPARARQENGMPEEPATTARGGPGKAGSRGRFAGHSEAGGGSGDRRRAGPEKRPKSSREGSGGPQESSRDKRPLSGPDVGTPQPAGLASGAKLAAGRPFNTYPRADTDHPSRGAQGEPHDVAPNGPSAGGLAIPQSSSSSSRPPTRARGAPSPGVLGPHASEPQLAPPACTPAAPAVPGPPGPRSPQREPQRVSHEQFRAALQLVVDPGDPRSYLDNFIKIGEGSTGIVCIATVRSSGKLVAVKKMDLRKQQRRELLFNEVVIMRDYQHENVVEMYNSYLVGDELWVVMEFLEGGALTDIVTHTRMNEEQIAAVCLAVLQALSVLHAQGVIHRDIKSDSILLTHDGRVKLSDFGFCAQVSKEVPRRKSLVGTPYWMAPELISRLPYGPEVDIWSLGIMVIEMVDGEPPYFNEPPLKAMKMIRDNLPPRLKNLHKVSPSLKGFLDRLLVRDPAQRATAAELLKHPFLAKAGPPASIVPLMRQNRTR
Sequence of MAP4K1 (HPK1) (Q92918 whole entry): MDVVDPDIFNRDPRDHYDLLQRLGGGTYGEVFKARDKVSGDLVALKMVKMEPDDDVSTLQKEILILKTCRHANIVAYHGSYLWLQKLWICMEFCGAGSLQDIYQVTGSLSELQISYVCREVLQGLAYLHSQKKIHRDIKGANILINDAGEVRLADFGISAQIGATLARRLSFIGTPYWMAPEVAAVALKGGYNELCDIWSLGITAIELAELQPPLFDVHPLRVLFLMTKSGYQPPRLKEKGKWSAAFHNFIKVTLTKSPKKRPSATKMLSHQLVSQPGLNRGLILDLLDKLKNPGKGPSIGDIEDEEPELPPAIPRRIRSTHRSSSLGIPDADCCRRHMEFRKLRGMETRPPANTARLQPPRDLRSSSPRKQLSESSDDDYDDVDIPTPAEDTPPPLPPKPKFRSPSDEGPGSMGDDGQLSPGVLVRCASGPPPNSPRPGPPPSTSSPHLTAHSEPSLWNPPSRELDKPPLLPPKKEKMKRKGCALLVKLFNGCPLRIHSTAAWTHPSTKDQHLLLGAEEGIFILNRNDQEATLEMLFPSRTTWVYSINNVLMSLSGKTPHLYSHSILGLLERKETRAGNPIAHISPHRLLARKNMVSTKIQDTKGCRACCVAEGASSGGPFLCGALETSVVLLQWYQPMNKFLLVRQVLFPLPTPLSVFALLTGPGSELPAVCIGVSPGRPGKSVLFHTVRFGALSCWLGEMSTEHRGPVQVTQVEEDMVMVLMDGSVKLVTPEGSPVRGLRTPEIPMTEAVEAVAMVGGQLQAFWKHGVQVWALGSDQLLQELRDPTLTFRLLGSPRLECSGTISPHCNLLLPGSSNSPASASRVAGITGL
Experimental for CASK: (§1) Selectivity profiling assays were performed by the Invitrogen SelectScreen™ Services. […] The concentration of ATP was selected to be equal to the KM, unless indicated otherwise.
Experimental for EPHB3: as §1
Experimental for MAP4K1 (HPK1): as §1
Experimental for MARK3: as §1
Experimental for PAK4: as §1
Experimental for RPS6KA1 (RSK1): as §1

Regarding `C#CCOc1ccc(Nc2ncc(Cl)c(Nc3ccccc3NC(=O)C=C)n2)c(OC)c1` [Compound 6], the inhibition at 1 µM against MAP4K1 (HPK1) (setting [1]) was 17%; on MAP4K1 (HPK1) (read-out: Inhibition at 1 µM (%), MAP4K1 (HPK1), 1 µM, LanthaScreen Binding) it was 16%; at MARK3 (setting [1]), 6%; at MARK3 (read-out: Inhibition at 1 µM (%), MARK3, 1 µM, ZLYTE, ATP Km app), 5%; against EPHB3 (setting [1]), 1%; on CASK (setting [1]), -7%. Further, the inhibition at 1 µM at PAK4 (setting [1]) is -4%; against RPS6KA1 (RSK1) (setting [1]), 5%. Also, the “Inhibition at 1 µM (%)” value is 8% on MARK3 (MARK3, 1 µM, ZLYTE, ATP Km app, listed as WEL028, 1 µM); 2% at EPHB3; 0% at EPHB3 (listed as WEL028, 1 µM); -11% at CASK; -4% at CASK (listed as WEL028, 1 µM); -8% and 1% on PAK4 (PAK4, 1 µM, ZLYTE, ATP Km app, listed as WEL028, 1 µM). Besides, the “Inhibition at 1 µM (%)” value at RPS6KA1 (RSK1) (1 µM, ZLYTE, ATP Km app, listed as WEL028, 1 µM) was 0% and 10%.
